Among the data in US20230373974A1, “MODULATORS OF CYSTIC FIBROSIS TRANSMEMBRANE CONDUCTANCE REGULATOR” (VERTEX PHARMACEUTICALS INCORPORATED, priority 2020, published 2023) are EC50 and Emax values, retold here.

The term pEC50 denotes −log10 of the EC50, conventionally taken in molar units.

Molecules are shown by their SMILES. pEC50: −log10 of the molar value.

The assay has as its target T1, F508del in NIH 3T3 cells (Homo sapiens, UniProt P13569, DEL508-508).
T1 construct: expressed in transfected cells
Description: 3T3 assay: membrane potential optical assay for F508del correction. Format: cell-based, mouse. The conditions noted are these: F508del NIH 3T3 cells; for pEC50: incubated with compound 18-24 hours at 37° C., forskolin activation; for Emax: NIH3T3, efficacy compared to lumacaftor in combination with acutely added 300 nM Ivacaftor, read-out: 3T3 Max Activity (%). An excerpt: Membrane Potential Optical Methods for Assaying F508del Modulation Properties of Compounds The assay utilizes fluorescent voltage sensing dyes to measure changes in membrane potential using a fluorescent plate reader (e.g., FLIPR III, Molecular Devices, Inc.) as a readout for increase in functional F508del in NIH 3T3 cells. The driving force for the response is the creation of a chloride ion gradient in conjunction with channel activation by a single liquid addition step after the cells have previously been treated with compounds and subsequently loaded with a voltage sensing dye. 2. Identification of Corrector Compounds To identify correctors of F508del, a single-addition HTS assay format was developed. This HTS assay utilizes fluorescent voltage sensing dyes to measure changes in membrane potential on the FLIPR III as a measurement for increase in gating (conductance) of F508del in F508del NIH 3T3 cells. The F508del NIH 3T3 cell cultures were incubated with the corrector compounds at a range of concentrations for 18-24 hours at 37° C., and subsequently loaded with a redistribution dye. The driving force for the response is a Cl^− ion gradient in conjunction with channel activation with forskolin in a single liquid addition step using a fluorescent plate reader such as FLIPR III. […] Solutions […] Chloride-free bath solution: Chloride salts in Bath Solution #1 (above) are substituted with gluconate salts. 4. Cell Culture NIH3T3 mouse fibroblasts stably expressing F508del are used for optical measurements of membrane potential. The cells are maintained at 37° C. in 5% CO2 and 90% humidity in Dulbecco's modified Eagle's medium supplemented with 2 mM glutamine, 10% fetal bovine serum, 1×NEAA, b-ME, 1×pen/strep, and 25 mM HEPES in 175 cm^2 culture flasks. For all optical assays, the cells were seeded at ˜20,000/well in 384-well Matrigel-coated plates. For the correction assays, the cells are cultured at 37° C. with and without compounds for 16-24 hours.

T1 sequence (P13569 with tags, fused parts or gaps DEL508-508): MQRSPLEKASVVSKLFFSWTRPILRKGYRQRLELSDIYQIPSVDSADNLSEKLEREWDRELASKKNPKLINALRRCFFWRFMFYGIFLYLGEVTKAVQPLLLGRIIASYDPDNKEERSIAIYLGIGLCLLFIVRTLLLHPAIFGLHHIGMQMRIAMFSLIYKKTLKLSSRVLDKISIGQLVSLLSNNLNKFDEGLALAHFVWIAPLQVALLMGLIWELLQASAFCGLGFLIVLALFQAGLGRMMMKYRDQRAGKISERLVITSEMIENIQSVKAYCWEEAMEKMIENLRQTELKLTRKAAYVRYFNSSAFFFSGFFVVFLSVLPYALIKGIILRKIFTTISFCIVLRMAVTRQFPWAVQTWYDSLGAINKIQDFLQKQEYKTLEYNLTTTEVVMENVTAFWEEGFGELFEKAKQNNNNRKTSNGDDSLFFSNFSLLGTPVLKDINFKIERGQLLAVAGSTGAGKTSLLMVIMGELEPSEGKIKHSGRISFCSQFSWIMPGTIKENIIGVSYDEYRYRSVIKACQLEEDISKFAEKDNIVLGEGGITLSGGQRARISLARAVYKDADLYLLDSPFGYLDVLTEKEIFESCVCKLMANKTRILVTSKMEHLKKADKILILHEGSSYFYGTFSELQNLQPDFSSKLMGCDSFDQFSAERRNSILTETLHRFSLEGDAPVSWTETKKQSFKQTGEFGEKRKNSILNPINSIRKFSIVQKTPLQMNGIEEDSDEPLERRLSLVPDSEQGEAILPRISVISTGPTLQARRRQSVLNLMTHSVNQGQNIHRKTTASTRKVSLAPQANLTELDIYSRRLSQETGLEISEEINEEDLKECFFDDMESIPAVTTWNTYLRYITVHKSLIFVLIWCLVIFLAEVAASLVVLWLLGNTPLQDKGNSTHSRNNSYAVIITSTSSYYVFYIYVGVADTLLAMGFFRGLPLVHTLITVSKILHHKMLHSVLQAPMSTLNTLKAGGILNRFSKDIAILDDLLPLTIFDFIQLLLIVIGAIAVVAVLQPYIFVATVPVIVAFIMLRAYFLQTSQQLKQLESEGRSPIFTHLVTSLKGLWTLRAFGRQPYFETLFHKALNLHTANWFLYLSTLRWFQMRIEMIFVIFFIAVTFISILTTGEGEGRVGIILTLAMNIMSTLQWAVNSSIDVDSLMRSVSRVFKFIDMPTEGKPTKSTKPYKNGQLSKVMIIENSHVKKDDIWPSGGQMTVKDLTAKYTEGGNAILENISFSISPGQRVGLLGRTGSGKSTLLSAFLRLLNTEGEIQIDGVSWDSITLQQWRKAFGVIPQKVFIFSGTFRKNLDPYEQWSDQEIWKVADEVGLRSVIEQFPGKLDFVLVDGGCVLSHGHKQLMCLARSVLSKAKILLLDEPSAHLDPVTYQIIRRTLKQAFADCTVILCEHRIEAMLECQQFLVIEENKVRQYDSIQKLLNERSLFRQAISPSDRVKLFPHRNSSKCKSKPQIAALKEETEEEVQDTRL

Consider `Cc1ccc(-n2nc(NS(=O)(=O)c3ccccc3)c3ccc(C(C)(C)C)nc32)c(C)c1` [Compound 43], for which the negative-log EC50 (pEC50) was more than 6.00 and the Emax lay in the range of 30 to 60%. `Cc1cc(C)c(-n2nc(NS(=O)(=O)c3ncc[nH]3)c3ccc(C(C)(C)C)nc32)c(C)c1` [Compound 56]: the negative-log EC50 (pEC50) is 5.52 to 6.00 and the Emax fell in the range of 30 to 60%. For `Cc1cc(NS(=O)(=O)c2ccccc2)nc2ccccc12` [Compound 81], the Emax was less than 30%.

As to `Cc1cc(C)cc(-c2nc(NS(=O)(=O)c3ccccc3)nc3nc(C(C)(C)C)ccc23)c1` [Compound 30, N-[7-tert-butyl-4-(3,5-dimethylphenyl)pyrido[2,3-d]pyrimidin-2-yl]benzenesulfonamide], the negative-log EC50 (pEC50) was more than 6.00. `Cc1ccccc1-n1nc(NS(=O)(=O)c2ccccc2)c2ccc(C(C)C)cc21` [Compound 73, N-[6-isopropyl-1-(o-tolyl)indazol-3-yl]benzenesulfonamide]: the pEC50 was 5.52 to 6.00 and the Emax fell in the range of 30 to 60%. Taken in the same sequence, the figures for `O=S(=O)(Nc1nc2c(c(Oc3ccccc3)n1)CCC2)c1ccccc1` [Compound 6, N-(4-phenoxy-6,7-dihydro-5H-cyclopenta[d]pyrimidin-2-yl)benzenesulfonamide] were 4.52 to 5.52 and more than 60%. Consider `O=S(=O)(Nc1nc2c(s1)CCc1ccccc1-2)c1ccccc1` [Compound 26], for which the pEC50 is 5.52 to 6.00 and the Emax lay within 30 to 60%. On to `Cc1cc(C)cc(-n2c(NS(=O)(=O)c3ccccc3)nc3cc(C(C)(C)C)ccc32)c1` [Compound 91], for which the Emax is less than 30%. In the case of `Cc1cc(C)c(Oc2cc(C(C)(C)C)cc3nnc(NS(=O)(=O)c4cccc(N)c4)n23)c(C)c1` [Compound 94], the Emax is less than 30%.

With `Cc1cc(C)c(Oc2cc(C(C)(C)C)cc3nnc(NS(=O)(=O)c4ccccc4)n23)c(C)c1` [Compound 95], the Emax was less than 30%. With `Cc1ccc(S(=O)(=O)Nc2nn(-c3c(C)cc(C)cc3C)c3nc(C(C)(C)C)ccc23)cc1` [Compound 66], the Emax is less than 30%.

`COc1ccc(OC)c(S(=O)(=O)Nc2nn(-c3c(C)cc(C)cc3C)c3nc(C(C)(C)C)ccc23)c1` [Compound 58]: the pEC50 was more than 6.00 and the Emax was in the range of 30 to 60%.

For the compound `Cc1cccc(C)c1Oc1nc2ccccc2nc1NS(=O)(=O)c1ccccc1` [Compound 11, N-[3-(2,6-Dimethylphenoxy)quinoxalin-2-yl]benzenesulfonamide], the negative-log EC50 (pEC50) is 4.52 to 5.52. Regarding `CC(C)(C)c1ccc2nc(NS(=O)(=O)c3ccccc3)[nH]c2c1` [Compound 93], the Emax is less than 30%. On the same count and under the same terms, the same measure for `Cc1cc(C)c(-n2nc(NS(=O)(=O)c3ccc(Cl)cc3)c3ccc(C(C)(C)C)nc32)c(C)c1` [Compound 65]: less than 30%.

For `Cc1cc(C)cc(-n2nc(NS(=O)(=O)c3ccccc3)c3cc(Br)cnc32)c1` [Compound 48], the negative-log EC50 (pEC50) was more than 6.00 and the Emax is 30 to 60%. On the same counts, the results for `Cc1cc(C)c(-n2nc(NS(=O)(=O)c3cccc(N(C)C)c3)c3ccc(C(C)(C)C)nc32)c(C)c1` [Compound 34, N-[6-tert-butyl-1-(2,4,6-trimethylphenyl)pyrazolo[3,4-b]pyridin-3-yl]-3-(dimethylamino)benzenesulfonamide] are more than 6.00 and more than 60%. As for `Cc1ccc(-n2ncc3c2CC(C)(C)CC3NS(=O)(=O)c2ccccc2)cc1` (stereo not drawn) [Compound 83], the Emax is less than 30%. For the compound `COc1ccccc1-n1nc(NS(=O)(=O)c2ccccc2)c2ccc(C(C)(C)C)nc21` [Compound 51], the pEC50 was 5.52 to 6.00 and the Emax was 30 to 60%. Consider `COc1cccc(S(=O)(=O)Nc2nn(-c3c(C)cc(C)cc3C)c3nc(C(C)(C)C)ccc23)c1` [Compound 60], for which the pEC50 is more than 6.00 and the Emax is 30 to 60%. Regarding `CC(C)N1CCc2nc(NS(=O)(=O)c3ccccc3)sc2C1` [Compound 22], the Emax was less than 30%. Still for that read-out and setting: the same measure for `Cc1cc(C)c(Oc2nc(NS(=O)(=O)c3ccccc3)c3ccc(C(C)(C)C)nc3n2)c(C)c1` [Compound 19]: less than 30%; for `Cc1cc(C)c(-n2nc(NS(=O)(=O)c3ccccc3N)c3ccc(C(C)(C)C)nc32)c(C)c1` [Compound 67]: less than 30%. Turning to `C=C(C)c1ccc2c(NS(=O)(=O)c3ccccc3)nn(-c3ccccc3C)c2c1` [Compound 72, N-[6-isopropenyl-1-(o-tolyl)indazol-3-yl]benzenesulfonamide], the pEC50 is 5.52 to 6.00 and the Emax was more than 60%. Take `Cc1cc(C)c(-c2nnc(NS(=O)(=O)c3ccccc3)c3ccc(C(C)(C)C)nc23)c(C)c1` [Compound 90]: the Emax was less than 30%. Consider `Cc1cccc(C)c1-c1nc(NS(=O)(=O)c2ccccc2)nc2c1CCCC2(C)c1ccccc1` (stereo not drawn) [Compound 76, N-[4-(2,6-Dimethylphenyl)-8-methyl-8-phenyl-6,7-dihydro-5H-quinazolin-2-yl]benzenesulfonamide], for which the negative logarithm of the EC50 (pEC50) was more than 6.00 and the Emax was more than 60%. On the same counts, the results for `Cc1ccccc1Oc1nc(NS(=O)(=O)c2cnn(C)c2)nc2c1CCC(C)(C)C2` [Compound 2, N-[7,7-Dimethyl-4-(2-methylphenoxy)-6,8-dihydro-5H-quinazolin-2-yl]-1-methyl-pyrazole-4-sulfonamide] are 5.52 to 6.00 and more than 60%. Turning to `Cc1cc(C)cc(-n2c(NS(=O)(=O)c3ccccc3)nc3ccc(C(C)(C)C)cc32)c1` [Compound 92], the Emax was less than 30%. As for `CC(C)n1nc(NS(=O)(=O)c2ccccc2)c2ccc(C(C)(C)C)nc21` [Compound 39, N-(6-tert-butyl-1-isopropyl-pyrazolo[3,4-b]pyridin-3-yl)benzenesulfonamide], the pEC50 is 5.52 to 6.00. Take `COc1cccc(OC)c1S(=O)(=O)Nc1nn(-c2c(C)cc(C)cc2C)c2nc(C(C)(C)C)ccc12` [Compound 54]: the Emax was less than 30%.

`Cc1ccccc1Oc1nc2ccccc2nc1NS(=O)(=O)c1ccccc1` [Compound 15]: the pEC50 was 4.52 to 5.52 and the Emax fell in the range of 30 to 60%.

As to `O=S(=O)(Nc1nc2c(c(Oc3ccccc3)n1)CCCC2)c1ccccc1` [Compound 4, N-(4-phenoxy-5,6,7,8-tetrahydroquinazolin-2-yl)benzenesulfonamide], the negative logarithm of the EC50 (pEC50) is 4.52 to 5.52 and the Emax is more than 60%. Turning to `COc1ccccc1S(=O)(=O)Nc1nn(-c2c(C)cc(C)cc2C)c2nc(C(C)(C)C)ccc12` [Compound 59], the pEC50 is 5.52 to 6.00 and the Emax was in the range of 30 to 60%.

On to `Cc1ccccc1Oc1nc(NS(=O)(=O)c2cnn(C)c2)nc2c1C(C)(C)CCC2` [Compound 1, N-[5,5-dimethyl-4-(2-methylphenoxy)-7,8-dihydro-6H-quinazolin-2-yl]-1-methyl-pyrazole-4-sulfonamide], for which the pEC50 is 5.52 to 6.00 and the Emax was more than 60%.

As for `O=S(=O)(Nc1nc2c(s1)-c1ccccc1CC2)c1ccccc1` [Compound 20, N-(4,5-Dihydrobenzo[g][1,3]benzothiazol-2-yl) benzenesulfonamide], the negative logarithm of the EC50 (pEC50) was 4.52 to 5.52.

With `Cc1cc(C)cc(-c2nc(NS(=O)(=O)c3ccccc3)nc3ccccc23)c1` [Compound 28, N-[4-(3,5-Dimethylphenyl)quinazolin-2-yl]benzenesulfonamide], the negative logarithm of the EC50 (pEC50) was 5.52 to 6.00.

As for `COc1ccc(S(=O)(=O)Nc2nn(-c3c(C)cc(C)cc3C)c3nc(C(C)(C)C)ccc23)cc1` [Compound 64], the Emax is less than 30%. With `Cc1ccccc1-n1cc(NS(=O)(=O)c2ccccc2)c2ccc(C(C)(C)C)nc21` [Compound 89], the Emax was less than 30%. With `COc1ccc(N)cc1S(=O)(=O)Nc1nn(-c2c(C)cc(C)cc2C)c2nc(C(C)(C)C)ccc12` [Compound 55], the pEC50 was 4.52 to 5.52 and the Emax fell in the range of 30 to 60%. Regarding `CC(C)(C)c1ccc2c(NS(=O)(=O)c3ccccc3)cn(-c3cccc(Cl)c3)c2n1` [Compound 87], the Emax is less than 30%. The same measure, in the same setting: the same measure for `Cc1cc(C)cc(-n2cc(NS(=O)(=O)c3ccccc3)c3ccc(C(C)(C)C)nc32)c1` [Compound 88]: less than 30%.

Regarding `O=S(=O)(Nc1nc2c(s1)Cc1ccccc1-2)c1ccccc1` [Compound 27], the negative logarithm of the EC50 (pEC50) is 4.52 to 5.52 and the Emax lay within 30 to 60%. Taken in the same sequence, the figures for `Cc1ccccc1Oc1nc(NS(=O)(=O)c2cnn(C)c2)nc2c1CCc1ccccc1-2` [Compound 7] were more than 6.00 and more than 60%.
